This note sets out measurements from article PMC6274445, “Compound Library Screening Identified Cardiac Glycoside Digitoxin as an Effective Growth Inhibitor of Gefitinib-Resistant Non-Small Cell Lung Cancer via Downregulation of α-Tubulin and Inhibition of Microtubule Formation” (Molecules, 2016).

The target of the test is T1, Na+/K+-ATPase.
T1 construct: gene ATP1A1
Put plainly: in vitro enzymatic assay, inorganic phosphate release during ATP hydrolysis (Taussky-Shorr, […] nm). The test is classed as biochemical.

What is called EC50 is the concentration that produces a half-maximal response. Low readings indicate higher potency in that assay, high ones lower potency in that assay. The compound `C[C@H]1O[C@@H](O[C@H]2[C@@H](O)C[C@H](O[C@H]3[C@@H](O)C[C@H](O[C@H]4CC[C@@]5(C)[C@H](CC[C@@H]6[C@@H]5CC[C@]5(C)[C@@H](C7=CC(=O)OC7)CC[C@]65O)C4)O[C@@H]3C)O[C@@H]2C)C[C@H](O)[C@@H]1O` [Digitoxin] gave an EC50 of 780 nM.
